# Like-named read-outs stand apart in the source and are kept apart here.
# Key:
# [1] = target: SARS-CoV-2 main protease (Mpro) (Severe acute respiratory syndrome coronavirus 2, UniProt P0DTC1); test: FRET-based Mpro inhibition assay; format: biochemical; details: substrate 2-AbzSAVLQSGTyr(3-NO2)R-OH, incubated with Mpro for 30 minutes
# Method: Activity assays were performed for SARS-CoV-2 Mpro[16],[71] utilizing the three natural compounds, aiming to characterize the specificity of the compounds towards PLpro. The assays were performed applying a total reaction volume of 50 µL using non-binding, black bottom, 96-well plates and the relative fluorescence was measured utilizing a Tecan Infinite M plus plate reader (Tecan Group Ltd, Switzerland) using optical settings specific for the substrate 2-Abz[…]yr(3-NO2)R-OH (Biotrend). The corresponding fluorophore has an excitation and emission at 355 nm and 460 nm wavelength respectively. The substrate and Mpro were used at a final concentration of 5 µM and 75 nM respectively. The known Mpro inhibitor (GC-376) was used as positive control throughout the assay. SARS-CoV-2 Mpro and substrates were diluted in assay buffer (20 mM Tris-HCl pH 7.3, 150 mM NaCl, 1 mM EDTA, 1 mM DTT) and reactions were initiated upon addition of Mpro in a final volume of 50 µL and were measured at 25 °C. The three compounds were incubated prior to the experiments with Mpro at 10 °C for 6 h, as accomplished also for the PLpro activity assays. Fluorescence values were measured for 15 min with one read out per minute. […]
# 311 with Mpro for 6h at 10 °C and fluorescence was measured for 15 min with read - […]
# 318 were incubated with the Mpro for 30 minutes. The IC50 values were calculated by […]
# PLpro = PLpro (Severe acute respiratory syndrome coronavirus 2, UniProt P0DTC1); test: nanoDSF fluorescence titration (quenching of PLpro fluorescence); format: binding, SARS-CoV-2
# SARS-CoV-2 PLpro [2] = target: T1, SARS-CoV-2 PLpro (Severe acute respiratory syndrome coronavirus 2, UniProt P0DTC1); format: biochemical; details: compound at 50 µM, compared with ISG15-Rhodamine substrate
# SARS-CoV-2 [3] = test: microbe, parasite or virus in culture; format: cell-based; details: Vero cells, MOI 0.01, 42 h, CellTiter-Glo; for IC50: read-out: IC50 CPE inhibition
# SARS-CoV-2 PLpro [4] = target: T1, SARS-CoV-2 PLpro; test: biochemical; details: for inhibition at 50 µM: compound at 50 µM, 10 nM PLpro, ISG15-Rhodamine 100 nM, preincubation 6 h at 10 °C, read-out: % Inhibition of PLpro deISGylation activity
# SARS-CoV-2 [5] = test: Antiviral activity assay in Vero cells, viral RNA by qRT-PCR; format: cell-based; details: Severe acute respiratory syndrome coronavirus 2, MOI 0.01, qRT-PCR, 42 h post-infection, read-out: IC50 Antiviral cell assay (reduction of viral RNA replication)
# [6] = tested on: Vero cell lines (ATCC CCL-81)
structure (smiles),measurement,setting,value
CC(C)C[C@H](NC(=O)OCc1ccccc1)C(=O)N[C@@H](CC1CCNC1=O)C(O)S(=O)(=O)O (some centres unmarked) [GC-376],IC50,[1],1.1 µM
"O=Cc1ccc(O)cc1 [HBA, 4-hydroxybenzaldehyde]",Kd,PLpro,~400 µM
same,inhibition of PLpro with Ub-Rhodamine as substrate,SARS-CoV-2 PLpro [2],not as pronounced
same,IC50 CPE inhibition,SARS-CoV-2 [3],unable to fit a sigmoidal curve
same,IC50,SARS-CoV-2 PLpro [4],3.99 ± 1.33 µM
same,inhibition at 50 µM,SARS-CoV-2 PLpro [4],~73%
"COC(=O)c1ccc(O)c(O)c1 [HE9, methyl 3,4-dihydroxybenzoate]",IC50,SARS-CoV-2 [5],0.13 µM
same,Kd,"PLpro; nanoDSF fluorescence titration, 50 μM PLpro, 0.5% DMSO, depending on the emission wavelength used (330/350 nm), read-out: Kd",1000 µM
same,cell toxicity at 100 µM,[6],no associated cell toxicity
same,IC50,"SARS-CoV-2 [3]; Severe acute respiratory syndrome coronavirus 2, Vero, 42 h",10.4 µM
same,IC50,SARS-CoV-2 [3],10 µM
"OCCc1ccc(O)cc1 [YRL, 4-(2-hydroxyethyl)phenol]",IC50,SARS-CoV-2 [5],1 µM
same,cell toxicity at 100 µM,[6],no associated cell toxicity
same,inhibition of PLpro with Ub-Rhodamine as substrate,SARS-CoV-2 PLpro [2],not as pronounced
same,IC50 CPE inhibition,SARS-CoV-2 [3],unable to fit a sigmoidal curve
same,IC50,SARS-CoV-2 PLpro [4],6.68 ± 1.2 µM
same,inhibition at 50 µM,SARS-CoV-2 PLpro [4],~70%

# Source: article PMC9366811, “Antiviral activity of natural phenolic compounds in complex at an allosteric site of SARS-CoV-2 papain-like protease” (Communications Biology, 2022)
